Results: patent publication US20160145267A1, “HETEROARYL SUBSTITUTED PYRAZOLES” (BAYER PHARMA AKTIENGESELLSCHAFT, priority 2013, published 2016)
pIC50: −log10 of the molar value. Read-outs that look alike come from different tables or passages of the source.

Assays:
[1] = target: T1, catalytic domain of human Bub1 (amino acids 704-1085) (Homo sapiens, UniProt O43683); assay: Bub1 kinase assay (TR-FRET); assay type: biochemical
T1 construct: catalytic domain of human Bub1 (amino acids 704-1085); His6 (N); made in house; host or cells: Hi5 insect cells
Procedure: To this end, 100-fold concentrated compound solutions (in DMSO) were previously prepared by serial dilution (1:3.4) of 2 mM stocks in a clear low volume 384-well source microtiter plate (Greiner Bio-One, Frickenhausen, Germany), from which 50 nL of compounds were transferred into a black low volume test microtiter plate from the same supplier. […] The resulting mixture (5 μL final volume) was incubated at 22° C. during 60 min., and the reaction was stopped by the addition of 5 μL of an aqueous EDTA-solution (50 mM EDTA, in 100 mM HEPES pH 7.5 and 0.2% (w/v) bovine serum albumin) which also contained the TR-FRET detection reagents (0.2 μM streptavidin-XL665 [Cisbio Bioassays, Codolet, France] and 1 nM anti-phoshoSerine antibody [Merck Millipore, cat. #35-001] and 0.4 nM LANCE EU-W1024 labeled anti-mouse IgG antibody [Perkin-Elmer, product no. AD0077, alternatively a Terbium-cryptate-labeled anti-mouse IgG antibody from Cisbio Bioassays can be used]). The stopped reaction mixture was further incubated 1 h at 22° C. in order to allow the formation of complexes between peptides and detection reagents. Subsequently, the amount of product was evaluated by measurement of the resonance energy transfer from the Eu-chelate-antibody complex recognizing the Phosphoserine residue to the streptavidin-XL665 bound to the biotin moiety of the peptide.

HeLa cell line = assay: Proliferation assay (HeLa cell line); assay type: cell-based; conditions: Homo sapiens, 96 h, read-out: Biological Assay 2: Proliferation assay (HeLa cell line) median IC50
Procedure: Cultivated tumor cells (cells were ordered from ATCC, except HeLa-MaTu and HeLa-MaTu-ADR, which were ordered from EPO-GmbH, Berlin) were plated at a density of 1000 to 5000 cells/well, depending on the growth rate of the respective cell line, in a 96-well multititer plate in 200 μL of their respective growth medium supplemented 10% fetal calf serum. After 24 hours, the cells of one plate (zero-point plate) were stained with crystal violet (see below), while the medium of the other plates was replaced by fresh culture medium (200 μL), to which the test substances were added in various concentrations (0 μM, as well as in the range of 0.001-10 μM; the final concentration of the solvent dimethyl sulfoxide was 0.5%). The cells were incubated for 4 days in the presence of test substances. Cell proliferation was determined by staining the cells with crystal violet: the cells were fixed by adding 20 μL/measuring point of an 11% glutaric aldehyde solution for 15 minutes at room temperature. After three washing cycles of the fixed cells with water, the plates were dried at room temperature. The cells were stained by adding 100 μL/measuring point of a 0.1% crystal violet solution (pH 3.0). After three washing cycles of the stained cells with water, the plates were dried at room temperature. The dye was dissolved by adding 100 μl/measuring point of a 10% acetic acid solution. Absorbtion was determined by photometry at a wavelength of 595 nm. The change of cell number, in percent, was calculated by normalization of the measured values to the absorbtion values of the zero-point plate (=0%) and the absorbtion of the untreated (0 μm) cells (=100%). The IC50 values were determined by means of a 4 parameter fit.

[2] = 10 μM ATP, 1 μM peptide substrate, TR-FRET, read-out: Biological Assay 1: Bub1 kinase assay median IC50
[3] = 4 days incubation, crystal violet staining

T1 sequence (O43683 704-1085): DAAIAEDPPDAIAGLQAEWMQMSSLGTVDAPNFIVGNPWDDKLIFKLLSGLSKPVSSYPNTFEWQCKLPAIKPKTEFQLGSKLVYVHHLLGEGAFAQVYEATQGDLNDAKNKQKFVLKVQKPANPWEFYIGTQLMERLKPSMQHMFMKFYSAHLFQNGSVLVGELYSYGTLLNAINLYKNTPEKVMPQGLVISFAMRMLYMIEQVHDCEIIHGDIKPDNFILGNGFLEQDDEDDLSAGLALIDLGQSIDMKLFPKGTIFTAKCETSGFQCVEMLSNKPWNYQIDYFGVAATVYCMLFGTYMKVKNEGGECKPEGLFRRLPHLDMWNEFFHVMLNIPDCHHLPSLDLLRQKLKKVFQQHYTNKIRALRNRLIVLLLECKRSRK

| pIC50 [1, 2] | pIC50 (HeLa cell line) | pIC50 [1] | pIC50 (HeLa cell line; [3]) | SMILES |
| --- | --- | --- | --- | --- |
| 8.00 | < 5.00 | – | – | CCOc1cc(F)c(Cn2nc(-c3nc(N)cc(Nc4ccncc4)n3)c(C)c2C2CC2)c(F)c1 [Example 2-1-1, 2-[5-cyclopropyl-1-(4-ethoxy-2,6-difluorobenzyl)-4-methyl-1H-pyrazol-3-yl]-N-(pyridin-4-yl)pyrimidine-4,6-diamine] |
| 6.59 | 5.12 | – | – | CCOc1cc(F)c(Cn2nc(-c3nc(N)cc(Nc4ccnc(OC)c4)n3)c(C)c2C2CC2)c(F)c1 [Example 2-1-2, 2-[5-cyclopropyl-1-(4-ethoxy-2,6-difluorobenzyl)-4-methyl-1H-pyrazol-3-yl]-N-(2-methoxypyridin-4-yl)pyrimidine-4,6-diamine] |
| 8.20 | 5.51 | – | – | CCOc1cc(F)c(Cn2nc(-c3nc(N)cc(Nc4ccncn4)n3)c(C)c2C2CC2)c(F)c1 [Example 2-1-3, 2-[5-cyclopropyl-1-(4-ethoxy-2,6-difluorobenzyl)-4-methyl-1H-pyrazol-3-yl]-N-(pyrimidin-4-yl)pyrimidine-4,6-diamine] |
| 8.32 | 5.46 | – | – | CCOc1cc(F)c(Cn2nc(-c3nc(N)c(OC)c(Nc4ccncc4)n3)c(C)c2C2CC2)c(F)c1 [Example 2-1-4, 2-[5-cyclopropyl-1-(4-ethoxy-2,6-difluorobenzyl)-4-methyl-1H-pyrazol-3-yl]-5-methoxy-N-(pyridin-4-yl)pyrimidine-4,6-diamine] |
| 7.92 | 5.28 | – | – | CCOc1cc(F)c(Cn2nc(-c3nc(N)c(N4CCOCC4)c(Nc4ccncc4)n3)c(C)c2C2CC2)c(F)c1 [Example 2-1-6, 2-[5-cyclopropyl-1-(4-ethoxy-2,6-difluorobenzyl)-4-methyl-1H-pyrazol-3-yl]-5-(morpholin-4-yl)-N-(pyridin-4-yl)pyrimidine-4,6-diamine] |
| 8.01 | 5.28 | – | – | CCOc1cc(F)c(Cn2nc(-c3nc(N)c(N4CCOCC4)c(Nc4ccncn4)n3)c(C)c2C2CC2)c(F)c1 [Example 2-1-7, 2-[5-cyclopropyl-1-(4-ethoxy-2,6-difluorobenzyl)-4-methyl-1H-pyrazol-3-yl]-5-(morpholin-4-yl)-N-(pyrimidin-4-yl)pyrimidine-4,6-diamine] |
| – | – | 8.15 | 5.42 | CCOc1cc(F)c(Cn2nc(-c3nc(N)nc(Nc4ccncc4)n3)c(C)c2C2CC2)c(F)c1 [Example 2-1-8, 6-[5-cyclopropyl-1-(4-ethoxy-2,6-difluorobenzyl)-4-methyl-1H-pyrazol-3-yl]-N-(pyridin-4-yl)-1,3,5-triazine-2,4-diamine] |
| – | – | 7.92 | 5.22 | CCOc1cc(F)c(Cn2nc(-c3nc(N)nc(Nc4ccncn4)n3)c(C)c2C2CC2)c(F)c1 [Example 2-1-9, 6-[5-cyclopropyl-1-(4-ethoxy-2,6-difluorobenzyl)-4-methyl-1H-pyrazol-3-yl]-N-(pyrimidin-4-yl)-1,3,5-triazine-2,4-diamine] |
| 6.89 | 5.31 | – | – | CCNC(=O)Nc1cc(Nc2ccncn2)nc(-c2nn(Cc3c(F)cc(OCC)cc3F)c(C3CC3)c2C)n1 [Example 2-1-11, 1-{2-[5-cyclopropyl-1-(4-ethoxy-2,6-difluorobenzyl)-4-methyl-1H-pyrazol-3-yl]-6-(pyrimidin-4-ylamino)pyrimidin-4-yl}-3-ethylurea] |
| 6.62 | – | – | – | CCOc1cc(F)c(Cn2nc(-c3nc(NC(=O)NC4CCCCC4)cc(Nc4ccncc4)n3)c(C)c2C2CC2)c(F)c1 [Example 2-1-12, 1-cyclohexyl-3-{2-[5-cyclopropyl-1-(4-ethoxy-2,6-difluorobenzyl)-4-methyl-1H-pyrazol-3-yl]-6-(pyridin-4-ylamino)pyrimidin-4-yl}urea] |
| 6.26 | – | – | – | CCOc1cc(F)c(Cn2nc(-c3nc(NC(=O)NC4CCCCC4)cc(Nc4ccncn4)n3)c(C)c2C2CC2)c(F)c1 [Example 2-1-13, 1-cyclohexyl-3-{2-[5-cyclopropyl-1-(4-ethoxy-2,6-difluorobenzyl)-4-methyl-1H-pyrazol-3-yl]-6-(pyrimidin-4-ylamino)pyrimidin-4-yl}urea] |
| 6.51 | 5.42 | – | – | CCNC(=O)Nc1nc(-c2nn(Cc3c(F)cc(OCC)cc3F)c(C3CC3)c2C)nc(Nc2ccncc2)c1OC [Example 2-1-14, 1-{2-[5-cyclopropyl-1-(4-ethoxy-2,6-difluorobenzyl)-4-methyl-1H-pyrazol-3-yl]-5-methoxy-6-(pyridin-4-ylamino)pyrimidin-4-yl}-3-ethylurea] |
| 6.47 | – | – | – | CCNC(=O)Nc1nc(-c2nn(Cc3c(F)cc(OCC)cc3F)c(C3CC3)c2C)nc(Nc2ccncn2)c1OC [Example 2-1-15, 1-{2-[5-cyclopropyl-1-(4-ethoxy-2,6-difluorobenzyl)-4-methyl-1H-pyrazol-3-yl]-5-methoxy-6-(pyrimidin-4-ylamino)pyrimidin-4-yl}-3-ethylurea] |
| – | – | 6.47 | 5.48 | CCOc1cc(F)c(Cn2nc(-c3nc(NC(=O)NC4CCCCC4)c(OC)c(Nc4ccncc4)n3)c(C)c2C2CC2)c(F)c1 [Example 2-1-16, 1-cyclohexyl-3-{2-[5-cyclopropyl-1-(4-ethoxy-2,6-difluorobenzyl)-4-methyl-1H-pyrazol-3-yl]-5-methoxy-6-(pyridin-4-ylamino)pyrimidin-4-yl}urea] |
| 5.85 | 5.26 | – | – | CCOc1cc(F)c(Cn2nc(-c3nc(NC(=O)NC4CCCCC4)c(OC)c(Nc4ccncn4)n3)c(C)c2C2CC2)c(F)c1 [Example 2-1-17, 1-cyclohexyl-3-{2-[5-cyclopropyl-1-(4-ethoxy-2,6-difluorobenzyl)-4-methyl-1H-pyrazol-3-yl]-5-methoxy-6-(pyrimidin-4-ylamino)pyrimidin-4-yl}urea] |
| – | – | 6.54 | 5.00 | CCNC(=O)Nc1nc(-c2nn(Cc3c(F)cc(OCC)cc3F)c(C3CC3)c2C)nc(Nc2ccncc2)c1N1CCOCC1 [Example 2-1-18, 1-{2-[5-cyclopropyl-1-(4-ethoxy-2,6-difluorobenzyl)-4-methyl-1H-pyrazol-3-yl]-5-(morpholin-4-yl)-6-(pyridin-4-ylamino)pyrimidin-4-yl}-3-ethylurea] |
| – | – | ≤ 4.70 | – | CCOc1cc(F)c(Cn2nc(-c3nc(Nc4ccnc(OC)c4)cc(Nc4ccnc(OC)c4)n3)c(C)c2C2CC2)c(F)c1 [Example 2-2-2, 2-[5-cyclopropyl-1-(4-ethoxy-2,6-difluorobenzyl)-4-methyl-1H-pyrazol-3-yl]-N,N′-bis(2-methoxypyridin-4-yl)pyrimidine-4,6-diamine] |
| 6.51 | – | – | – | CCOc1cc(F)c(Cn2nc(-c3nc(Nc4ccncc4)c(OC)c(Nc4ccncc4)n3)c(C)c2C2CC2)c(F)c1 [Example 2-2-4, 2-[5-cyclopropyl-1-(4-ethoxy-2,6-difluorobenzyl)-4-methyl-1H-pyrazol-3-yl]-5-methoxy-N,N′-di(pyridin-4-yl)pyrimidine-4,6-diamine] |
| – | – | 6.85 | – | CCOc1cc(F)c(Cn2nc(-c3nc(Nc4ccncn4)c(N4CCOCC4)c(Nc4ccncn4)n3)c(C)c2C2CC2)c(F)c1 [Example 2-2-7, 2-[5-cyclopropyl-1-(4-ethoxy-2,6-difluorobenzyl)-4-methyl-1H-pyrazol-3-yl]-5-(morpholin-4-yl)-N,N′-di(pyrimidin-4-yl)pyrimidine-4,6-diamine] |
| – | – | 7.17 | – | CCOc1cc(F)c(Cn2nc(-c3nc(Nc4ccncc4)nc(Nc4ccncc4)n3)c(C)c2C2CC2)c(F)c1 [Example 2-2-8, 6-[5-cyclopropyl-1-(4-ethoxy-2,6-difluorobenzyl)-4-methyl-1H-pyrazol-3-yl]-N,N′-di(pyridin-4-yl)-1,3,5-triazine-2,4-diamine] |
| – | – | 5.26 | – | CCOc1cc(F)c(Cn2nc(-c3nc(Nc4ccnnc4)nc(Nc4ccnnc4)n3)c(C)c2C2CC2)c(F)c1 [Example 2-2-11, 6-[5-cyclopropyl-1-(4-ethoxy-2,6-difluorobenzyl)-4-methyl-1H-pyrazol-3-yl]-N,N′-di(pyridazin-4-yl)-1,3,5-triazine-2,4-diamine] |
